Measurements: BigSolDB 2.1

Cc1nnc(C(C)C)n1[C@@H]1C[C@H]2CC[C@@H](C1)N2CC[C@H](NC(=O)C1CCC(F)(F)CC1)c1ccccc1
solubility (mole fraction)
Conditions	278.15 K	283.15 K	288.15 K	293.15 K	298.15 K	303.15 K	308.15 K	313.15 K	318.15 K	323.15 K
in DMF	3.43e-05	5.31e-05	8.04e-05	0.000117	0.000181	0.000256	0.000364	0.000535	0.000744	0.00105
in DMSO	–	–	–	5.92e-05	8.77e-05	0.000133	0.000189	0.000273	0.00038	0.000539
in ethanol	0.000264	0.00038	0.0005	0.000715	0.00099	0.00142	0.00196	0.00273	0.0036	0.00458
in n-propanol	0.00022	0.000327	0.000454	0.000645	0.000911	0.00126	0.00167	0.00222	0.00296	0.00395
in water	5.73e-06	8.2e-06	1.15e-05	1.7e-05	2.47e-05	3.5e-05	5e-05	7.13e-05	9.89e-05	0.000137
